In PMC6185904 (Nature Communications, 2018):
Values belong to the compound of their own block, whether it stands above or below them.

Legend:
[1] = biological target: T1, NhaA (sodium/proton antiporter), dimeric NhaA-GFP (Escherichia coli, UniProt P13738); assay: FSEC-TS thermal shift, purified NhaA-GFP; assay type: binding; conditions: purified in DDM; dimer
T1 construct: full-length, C-terminal GFP-8His fusion (pWaldo GFPd), expressed in E. coli Lemo21(DE3), purified in DDM; homodimer
T1 sequence (P13738 1-388): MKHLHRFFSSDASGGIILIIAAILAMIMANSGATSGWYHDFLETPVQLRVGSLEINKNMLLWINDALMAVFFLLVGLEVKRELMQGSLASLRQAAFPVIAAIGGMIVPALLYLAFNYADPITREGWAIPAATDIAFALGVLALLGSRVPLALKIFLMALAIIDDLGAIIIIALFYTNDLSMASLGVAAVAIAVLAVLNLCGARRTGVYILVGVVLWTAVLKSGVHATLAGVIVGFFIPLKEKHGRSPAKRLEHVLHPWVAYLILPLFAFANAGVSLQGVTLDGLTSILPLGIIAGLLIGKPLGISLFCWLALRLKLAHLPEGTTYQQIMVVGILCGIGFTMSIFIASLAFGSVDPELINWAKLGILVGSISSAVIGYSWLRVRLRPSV

[2] = biological target: T1, NhaA (sodium/proton antiporter), dimeric NhaA-GFP; assay: FSEC-TS titration of dimer stabilization, nonlinear regression; assay type: binding; conditions: pH 7.5, 150 mM NaCl, 0.03% DDM plus 1% beta-OG, heated at 47 °C; 19 CL concentrations; dimer interface site; read-out: CL dependent oligomerization concentration (midpoint)
[3] = biological target: T2, human CMP–sialic acid transporter SLC35A1 (human CMP–Sia) (Homo sapiens, UniProt P78382); assay: GFP-TS titration, one-site fit, DDM-solubilized membranes (also ITC on purified protein)
T2 construct: full-length, GFP-8His fusion (pDDGFP-2), expressed in S. cerevisiae FGY217; DDM-solubilized membranes or purified
T2 sequence (P78382 1-337): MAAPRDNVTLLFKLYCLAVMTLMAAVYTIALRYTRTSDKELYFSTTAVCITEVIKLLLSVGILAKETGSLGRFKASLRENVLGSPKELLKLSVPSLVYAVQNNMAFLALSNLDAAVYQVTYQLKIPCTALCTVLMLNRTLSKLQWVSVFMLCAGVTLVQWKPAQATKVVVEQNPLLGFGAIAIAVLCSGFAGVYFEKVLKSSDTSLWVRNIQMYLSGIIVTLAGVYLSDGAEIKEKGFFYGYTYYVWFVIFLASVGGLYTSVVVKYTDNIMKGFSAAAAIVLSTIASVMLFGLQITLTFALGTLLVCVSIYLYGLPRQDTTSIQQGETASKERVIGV
Source text: GFP-TS titration, one-site fit, DDM-solubilized membranes (also ITC on purified protein) on human CMP–sialic acid transporter SLC35A1 (human CMP–Sia) | we used the GFP-TS to determine CMP binding affinities (Kd) for the plant and human

[4] = biological target: T2, human CMP–sialic acid transporter SLC35A1 (human CMP–Sia); assay: GFP-TS thermostabilization, DDM-solubilized membranes; assay type: binding; conditions: 5 mM ligand, heated at 42 °C, pH 7.5, 150 mM NaCl, DDM plus 1% beta-OG
[5] = biological target: T3, putative Zea mays CMP–sialic acid transporter (Z. mays CMP–Sia) (Zea mays, UniProt B4FZ94); assay: as above; assay type: binding; conditions: 5 mM ligand, heated at 54 °C, pH 7.5, 150 mM NaCl, DDM plus 1% beta-OG
T3 construct: gene ZEAMMB73_Zm00001d046060; full-length synthesized clone, GFP-8His fusion (pDDGFP-2), expressed in S. cerevisiae FGY217; DDM-solubilized membranes or purified
T3 sequence (B4FZ94 1-322): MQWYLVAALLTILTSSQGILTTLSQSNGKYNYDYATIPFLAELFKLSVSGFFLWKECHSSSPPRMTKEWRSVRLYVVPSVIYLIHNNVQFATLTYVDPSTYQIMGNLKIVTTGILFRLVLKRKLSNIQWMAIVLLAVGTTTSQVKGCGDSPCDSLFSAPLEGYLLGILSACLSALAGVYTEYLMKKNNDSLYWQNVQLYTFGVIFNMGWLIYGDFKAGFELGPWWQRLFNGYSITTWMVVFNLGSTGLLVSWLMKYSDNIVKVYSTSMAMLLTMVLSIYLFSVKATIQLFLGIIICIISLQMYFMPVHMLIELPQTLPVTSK

human NHA2 = biological target: T4, human NHA2 (Homo sapiens, UniProt Q86UD5); assay: GFP-TS lipid screen, purified GFP fusion; assay type: binding; conditions: 3 mg/mL lipid, heated at apparent Tm + 5 °C, pH 7.5, 150 mM NaCl, DDM plus 1% beta-OG
T4 construct: gene SLC9B2; GFP-8His fusion (pDDGFP-2), expressed in S. cerevisiae FGY217, purified in DDM
T4 sequence (Q86UD5 1-537): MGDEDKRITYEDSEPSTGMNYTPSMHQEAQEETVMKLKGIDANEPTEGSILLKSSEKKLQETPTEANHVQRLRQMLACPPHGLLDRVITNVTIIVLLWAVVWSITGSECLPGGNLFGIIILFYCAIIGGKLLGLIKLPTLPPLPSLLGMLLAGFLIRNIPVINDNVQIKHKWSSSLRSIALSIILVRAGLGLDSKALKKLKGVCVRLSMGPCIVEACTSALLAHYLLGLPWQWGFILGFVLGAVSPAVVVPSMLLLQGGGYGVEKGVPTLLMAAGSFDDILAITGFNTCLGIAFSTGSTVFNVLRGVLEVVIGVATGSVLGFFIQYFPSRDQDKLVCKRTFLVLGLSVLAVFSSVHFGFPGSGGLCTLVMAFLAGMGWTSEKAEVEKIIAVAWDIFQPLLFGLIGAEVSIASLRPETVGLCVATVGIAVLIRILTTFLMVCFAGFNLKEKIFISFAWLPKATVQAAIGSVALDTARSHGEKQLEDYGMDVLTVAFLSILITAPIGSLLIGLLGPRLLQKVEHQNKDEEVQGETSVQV

- apparent Tm without to with cardiolipin [1]: 42 to 53 °C
- EC50 [2]: 1400 µM
Structure (SMILES): CCCCCCCC/C=C\CCCCCCCC(=O)OC[C@H](COP(=O)(O)OCC(O)COP(=O)(O)OC[C@@H](COC(=O)CCCCCCC/C=C\CCCCCCCC)OC(=O)CCCCCCC/C=C\CCCCCCCC)OC(=O)CCCCCCC/C=C\CCCCCCCC (stereo partly drawn) [CL, cardiolipin (18:1)]

- Kd [3]: 19.5 ± 3.8 µM
Structure (SMILES): Nc1ccn([C@@H]2O[C@H](COP(=O)(O)O)[C@@H](O)[C@H]2O)c(=O)n1 [CMP]

Structure (SMILES): CC(=O)N[C@H]1[C@H]([C@H](O)[C@H](O)CO)O[C@](OP(=O)(O)OC[C@H]2O[C@@H](n3ccc(N)nc3=O)[C@H](O)[C@@H]2O)(C(=O)O)C[C@@H]1O [CMP–sialic acid]
- supernatant fluorescence after heating [4]: almost identical stabilization profile for substrates was observed for the human CMP–sialic acid transporter
- supernatant fluorescence after heating [5]: higher thermostablization for CMP–sialic acid as compared to the addition of sialic acid only

Structure (SMILES): CCCCCCCC/C=C\CCCCCCCC(=O)OC[C@H](COP(=O)(O)OCC(O)CO)OC(=O)CCCCCCC/C=C\CCCCCCCC (stereo partly drawn) [DOPG]
- supernatant fluorescence after heating (human NHA2): human NHA2, where the addition of PG was clearly stabilizing
